In patent publication US20250041312A1, “METHODS OF ADMINISTERING A MODULATOR OF HEMOGLOBIN” (Global Blood Therapeutics, Inc., priority 2021, published 2025):
Where two headings read alike, the source gives them in different places.

Assay: SAD study in healthy volunteers: PK in plasma, whole blood, red blood cells
Format: in vivo, human
Settings: for Cmax / AUC(0-t) / half-life / Kp / blood plasma ratio: human; for Kp: red blood cells and plasma; for Kp / blood plasma ratio: HV, dose range of 50 to 2200 mg; for blood plasma ratio: whole blood and plasma
Method: To evaluate the safety and tolerability of single ascending doses of Compound I, 48 healthy volunteers (42 in the fasted state and 6 in the fed state) aged 18 to 55 years old were administered single ascending doses (50 mg to 2200 mg) of Compound I, while 16 healthy volunteers (14 in the fasted state and 2 in the fed state) aged 18 to 55 years old were administered placebo in a double blind, randomized, sequential manner.
Whole blood pharmacokinetic (PK) parameters, using actual sample collection times, and hemoglobin occupancy after single ascending dose are shown in Table 5 (containing data from both healthy volunteers and SCD subjects) and Table 6 (containing data from only healthy volunteer subjects).

In the case of `O=Cc1c(O)cccc1OC[C@@H]1COCCN1C(=O)c1cccnc1CCO` [Compound I, (S)-2-hydroxy-6-((4-(2-(2-hydroxyethyl)nicotinoyl)morpholin-3-yl)methoxy)benzaldehyde], the “B:P ratio (mean AUC0-t blood:mean AUC0-t plasma)” value (HV single 50 mg) is reported as 220, the “B:P ratio (mean AUC0-t blood:mean AUC0-t plasma)” value (HV single 100 mg) is reported as 214 and the “B:P ratio (mean AUC0-t blood:mean AUC0-t plasma)” value (HV single 200 mg) is reported as 206. The “B:P ratio (mean AUC0-t blood:mean AUC0-t plasma)” value (HV single 400 mg) was 185, the “B:P ratio AUC0-inf” value (healthy subjects n=6, single 100 mg) was 216 and the Cmax (plasma, 100 mg, healthy volunteers n=6, single 100 mg, geometric mean) was 714 ng/mL. For the same compound, the AUC(0-t) (plasma, 100 mg, healthy volunteers n=6, single 100 mg, plasma, geometric mean, read-out: AUC0-t) was 68.7 µg·h/mL, the half-life (plasma, 100 mg, healthy volunteers n=6, single 100 mg, plasma, geometric mean, read-out: t½ (converted)) was 25.6 days and the Cmax (plasma, po, 50 mg, HV single oral 50 mg (Cohort 1), geometric mean) was 400 ng/mL. It also gave an AUC(0-t) (plasma, po, 50 mg, HV single oral 50 mg (Cohort 1), plasma, geometric mean, read-out: AUClast) of 31.1 µg·h/mL, a half-life (plasma, po, 50 mg, HV single oral 50 mg (Cohort 1), plasma, geometric mean, read-out: t1/2 (converted)) of 28.7 days and a Cmax (plasma, po, 100 mg, HV single oral 100 mg (Cohort 2), geometric mean) of 714 ng/mL. The AUC(0-t) (plasma, po, 100 mg, HV single oral 100 mg (Cohort 2), plasma, geometric mean, read-out: AUClast) was 68.7 µg·h/mL, the half-life (plasma, po, 100 mg, HV single oral 100 mg (Cohort 2), plasma, geometric mean, read-out: t1/2 (converted)) was 25.6 days and the Cmax (plasma, po, 200 mg, HV single oral 200 mg (Cohort 3), geometric mean) was 1290 ng/mL. The AUC(0-t) (plasma, po, 200 mg, HV single oral 200 mg (Cohort 3), plasma, geometric mean, read-out: AUClast) was 135 µg·h/mL, the half-life (plasma, po, 200 mg, HV single oral 200 mg (Cohort 3), plasma, geometric mean, read-out: t1/2 (converted)) was 30.8 days and the Cmax (plasma, po, 400 mg, HV single oral 400 mg (Cohort 5), geometric mean) was 3190 ng/mL. For the same compound, the AUC(0-t) (plasma, po, 400 mg, HV single oral 400 mg (Cohort 5), plasma, geometric mean, read-out: AUClast) was 331 µg·h/mL, the half-life (plasma, po, 400 mg, HV single oral 400 mg (Cohort 5), plasma, geometric mean, read-out: t1/2 (converted)) was 26 days and the Cmax (plasma, po, 800 mg, HV single oral 800 mg (Cohort 6), geometric mean) was 4250 ng/mL. For the same compound, the AUC(0-t) (plasma, po, 800 mg, HV single oral 800 mg (Cohort 6), plasma, geometric mean, read-out: AUClast) was 609 µg·h/mL, the half-life (plasma, po, 800 mg, HV single oral 800 mg (Cohort 6), plasma, geometric mean, read-out: t1/2 (converted)) was 20.7 days and the Cmax (plasma, po, 1400 mg, HV single oral 1400 mg (Cohort 7), geometric mean) was 7780 ng/mL. The AUC(0-t) (plasma, po, 1400 mg, HV single oral 1400 mg (Cohort 7), plasma, geometric mean, read-out: AUClast) was 1030 µg·h/mL, the half-life (plasma, po, 1400 mg, HV single oral 1400 mg (Cohort 7), plasma, geometric mean, read-out: t1/2 (converted)) was 21.4 days and the Cmax (plasma, po, 2200 mg, HV single oral 2200 mg (Cohort 8), geometric mean) was 9300 ng/mL. For the same compound, the AUC(0-t) (plasma, po, 2200 mg, HV single oral 2200 mg (Cohort 8), plasma, geometric mean, read-out: AUClast) was 1360 µg·h/mL, the half-life (plasma, po, 2200 mg, HV single oral 2200 mg (Cohort 8), plasma, geometric mean, read-out: t1/2 (converted)) was 22.1 days and the Kp (read-out: mean RBC to plasma ratio for AUCinf) was 420 to 530. The Kp (read-out: mean RBC to plasma ratio for Cmax) was 49 to 99, the AUC(0-t) (red blood cells, po, 50 mg, HV single oral 50 mg (Cohort 1), red blood cells (calculated conc.), geometric mean, read-out: AUClast) was 16500 µg·h/mL and the half-life (red blood cells, po, 50 mg, HV single oral 50 mg (Cohort 1), red blood cells (calculated conc.), geometric mean, read-out: t1/2 (converted)) was 28.3 days. For the same compound, the Cmax (red blood cells, po, 50 mg, HV single oral 50 mg (Cohort 1), red blood cells (conc. calculated from blood, plasma, hematocrit), geometric mean) was 19300 ng/mL, the Cmax (red blood cells, po, 100 mg, HV single oral 100 mg (Cohort 2), red blood cells (calculated conc.), geometric mean) was 41700 ng/mL and the AUC(0-t) (red blood cells, po, 100 mg, HV single oral 100 mg (Cohort 2), red blood cells (calculated conc.), geometric mean, read-out: AUClast) was 34500 µg·h/mL. It also gave a half-life (red blood cells, po, 100 mg, HV single oral 100 mg (Cohort 2), red blood cells (calculated conc.), geometric mean, read-out: t1/2 (converted)) of 29 days, a Cmax (red blood cells, po, 200 mg, HV single oral 200 mg (Cohort 3), red blood cells (calculated conc.), geometric mean) of 76900 ng/mL and an AUC(0-t) (red blood cells, po, 200 mg, HV single oral 200 mg (Cohort 3), red blood cells (calculated conc.), geometric mean, read-out: AUClast) of 64400 µg·h/mL. It also gave a half-life (red blood cells, po, 200 mg, HV single oral 200 mg (Cohort 3), red blood cells (calculated conc.), geometric mean, read-out: t1/2 (converted)) of 28.1 days, a Cmax (red blood cells, po, 400 mg, HV single oral 400 mg (Cohort 5), red blood cells (calculated conc.), geometric mean) of 210000 ng/mL and an AUC(0-t) (red blood cells, po, 400 mg, HV single oral 400 mg (Cohort 5), red blood cells (calculated conc.), geometric mean, read-out: AUClast) of 151000 µg·h/mL. For the same compound, the half-life (red blood cells, po, 400 mg, HV single oral 400 mg (Cohort 5), red blood cells (calculated conc.), geometric mean, read-out: t1/2 (converted)) was 25.2 days, the Cmax (red blood cells, po, 800 mg, HV single oral 800 mg (Cohort 6), red blood cells (calculated conc.), geometric mean) was 351000 ng/mL and the AUC(0-t) (red blood cells, po, 800 mg, HV single oral 800 mg (Cohort 6), red blood cells (calculated conc.), geometric mean, read-out: AUClast) was 247000 µg·h/mL. The half-life (red blood cells, po, 800 mg, HV single oral 800 mg (Cohort 6), red blood cells (calculated conc.), geometric mean, read-out: t1/2 (converted)) was 26 days, the Cmax (red blood cells, po, 1400 mg, HV single oral 1400 mg (Cohort 7), red blood cells (calculated conc.), geometric mean) was 543000 ng/mL and the AUC(0-t) (red blood cells, po, 1400 mg, HV single oral 1400 mg (Cohort 7), red blood cells (calculated conc.), geometric mean, read-out: AUClast) was 455000 µg·h/mL. It also gave a half-life (red blood cells, po, 1400 mg, HV single oral 1400 mg (Cohort 7), red blood cells (calculated conc.), geometric mean, read-out: t1/2 (converted)) of 27.4 days, a Cmax (red blood cells, po, 2200 mg, HV single oral 2200 mg (Cohort 8), red blood cells (calculated conc.), geometric mean) of 910000 ng/mL and an AUC(0-t) (red blood cells, po, 2200 mg, HV single oral 2200 mg (Cohort 8), red blood cells (calculated conc.), geometric mean, read-out: AUClast) of 626000 µg·h/mL. The half-life (red blood cells, po, 2200 mg, HV single oral 2200 mg (Cohort 8), red blood cells (calculated conc.), geometric mean, read-out: t1/2 (converted)) was 24.6 days, the blood plasma ratio (read-out: mean blood to plasma ratio for AUCinf) was 177 to 219 and the blood plasma ratio (read-out: mean blood to plasma ratio for Cmax) was 20 to 42. For the same compound, the Cmax (whole blood, 50 mg, HV single 50 mg, mean) was 8100 ng/mL, the AUC(0-t) (whole blood, 50 mg, HV single 50 mg, whole blood, mean, read-out: AUC0-t) was 6900 µg·h/mL and the half-life (whole blood, 50 mg, HV single 50 mg, whole blood, mean, read-out: t1/2 (converted)) was 28.9 days. For the same compound, the Cmax (whole blood, 100 mg, HV single 100 mg, mean) was 17400 ng/mL, the AUC(0-t) (whole blood, 100 mg, HV single 100 mg, whole blood, mean, read-out: AUC0-t) was 14400 µg·h/mL and the half-life (whole blood, 100 mg, HV single 100 mg, whole blood, mean, read-out: t1/2 (converted)) was 29.8 days. For the same compound, the Cmax (whole blood, 100 mg, healthy subjects n=6, single 100 mg, blood, geometric mean) was 17300 ng/mL, the AUC(0-t) (whole blood, 100 mg, healthy subjects n=6, single 100 mg, blood, geometric mean, read-out: AUC0-t) was 14300 µg·h/mL and the half-life (whole blood, 100 mg, healthy subjects n=6, single 100 mg, blood, geometric mean, read-out: t½ (converted)) was 29.1 days. For the same compound, the Cmax (whole blood, 200 mg, HV single 200 mg, mean) was 35800 ng/mL, the AUC(0-t) (whole blood, 200 mg, HV single 200 mg, whole blood, mean, read-out: AUC0-t) was 29300 µg·h/mL and the half-life (whole blood, 200 mg, HV single 200 mg, whole blood, mean, read-out: t1/2 (converted)) was 28.4 days. It also gave a Cmax (whole blood, 400 mg, HV single 400 mg, mean) of 88100 ng/mL, an AUC(0-t) (whole blood, 400 mg, HV single 400 mg, whole blood, mean, read-out: AUC0-t) of 61900 µg·h/mL and a half-life (whole blood, 400 mg, HV single 400 mg, whole blood, mean, read-out: t1/2 (converted)) of 25.8 days. It also gave a Cmax (whole blood, 800 mg, HV single 800 mg, mean) of 149000 ng/mL, an AUC(0-t) (whole blood, 800 mg, HV single 800 mg, whole blood, mean, blood collected up to day 42, read-out: AUC0-t) of 74300 µg·h/mL and a Cmax (whole blood, 1400 mg, HV single 1400 mg, mean) of 231000 ng/mL. It also gave an AUC(0-t) (whole blood, 1400 mg, HV single 1400 mg, whole blood, mean, blood collected up to day 42, read-out: AUC0-t) of 137000 µg·h/mL.
